According to paper PMC10065799, “High-throughput profiling of sequence recognition by tyrosine kinases and SH2 domains using bacterial peptide display” (eLife, 2023):

How the values were obtained:
[1] = system: Fer kinase domain; experiment: pTyr-Var library bacterial peptide display kinase screen (enrichment scores); assay type: biochemical, mouse; conditions: sheet "Fer";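 further: log2 fold change in enrichment of variant over reference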
[2] = biological target: T1, c-Src kinase domain (Homo sapiens, UniProt P12931); experiment: as above; assay type: biochemical; conditions: sheet "Src"
[3] = system: EPHB1 kinase domain; experiment: as above; assay type: biochemical, human; conditions: for Screen: sheet EPHB1, effect of the variant peptide relative to its reference peptide in the pTyr-Var library screen (enrichment scores); for Screen (variant relative to reference peptide, measured in the pTyr-Var library screen): sheet "EPHB1", variant seq vs reference seq, bacterial peptide display enrichment
[4] = system: EPHB2 kinase domain; experiment: as above; assay type: biochemical, human; conditions: sheet EPHB2;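 further: log2 fold change in enrichment of variant over reference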
[5] = biological target: T1, c-Src kinase domain; experiment: ADP-Quest continuous fluorimetric kinase assay (Michaelis-Menten parameters and initial rates); assay type: biochemical; conditions: c-Src kinase domain 10 nM, 100 μM ATP, 37 °C, three to five replicates, error = standard error of global Michaelis-Menten fit
From the text: A fluorescence-based assay from Eurofins (ADP Quest) was used to measure the Michaelis-Menten kinetic parameters for phosphorylation of the consensus peptides by purified tyrosine kinase domains. In this assay, ADP production as a result of kinase activity is coupled to the production of resorufin, a fluorophore that emits signal at 590 nm. For all experiments, the assay reactions were set up as described in the provided assay kit protocol, in a 384 well plate format. The peptide solutions were serially diluted in 100 mM Tris, pH 8.0, and the kinases were diluted to 50 nM in buffer (10 mM HEPES, 100 mM NaCl, 1 mM TCEP, 5 mM MgCl2, 10% (v/v) glycerol). The final reaction mixtures contained 10 nM of kinase with 100 μM of ATP. […] Phosphorylation reaction progress was monitored by measuring fluorescence at excitation 530 nm and emission 590 nm every 2 min at 37 °C on a plate reader (BioTek Synergy Neo 2). The fluorescence units (RFU) were converted to μM ADP by comparison to a standard curve, and the initial rates were extracted from the linear regime of the reaction progress curves. Initial rates were also measured for samples containing each kinase but lacking a peptide substrate, to account for background ATP hydrolysis. This background rate was subtracted from the rates measured in the presence of peptide. […]

[6] = biological target: T2, c-Abl kinase domain (Mus musculus, UniProt P00520); experiment: pTyr-Var library bacterial peptide display kinase screen (enrichment scores); assay type: biochemical;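 further: log2 fold change in enrichment of variant over reference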
T2 sequence (P00520 242-493 limits assumed): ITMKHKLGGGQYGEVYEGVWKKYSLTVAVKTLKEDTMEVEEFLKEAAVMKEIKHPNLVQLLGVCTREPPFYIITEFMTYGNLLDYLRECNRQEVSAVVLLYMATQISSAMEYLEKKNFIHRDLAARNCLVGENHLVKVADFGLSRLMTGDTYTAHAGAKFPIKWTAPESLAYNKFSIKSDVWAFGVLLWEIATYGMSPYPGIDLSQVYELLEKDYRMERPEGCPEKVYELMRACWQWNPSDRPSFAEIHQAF

[7] = value of the variant peptide against its reference peptide in the pTyr-Var library screen with Fer
[8] = effect of the variant peptide relative to its reference peptide in the pTyr-Var library screen
[9] = effect of variant peptide relative to its reference peptide in the pTyr-Var library screen (enrichment scores)
[10] = variant peptide versus its reference peptide in the pTyr-Var library screen
[11] = fig5-data2, sheet "Abl", Screen for the variant/reference peptide pair, pTyr-Var library
[12] = variant peptide relative to its reference peptide, pTyr-Var library screen enrichment
[13] = effect of the variant relative to its reference peptide in the pTyr-Var library screen

Substance	Screen [1, 7]	Screen [2, 8]	Screen [3]	Screen [4, 9]	further results
ASTHIYQIMNH [ITK_Y588_V587I]	2.332	0.7541	3.124	2.415	
AVISVYDLVVV [PSEN1_Y256_A260V]	0.009469		-0.1318	-0.3059	Screen [2, 10]: -0.2228
Ac-GAEEEIYGEFEAKKKG-NH2 [SrcTide (1995), previously reported c-Src consensus substrate (Songyang et al., 1995)]					Km [5]: 64 ± 10 µM; kcat [5]: 3.1±0.2 s^–1
EFHRLYEEFTR [PIK3R1_Y467_D464H_YF]	-0.6972		0.6076	-0.0373	Screen [2, 10]: 0.07006
FAELVYTSFWH [ASS1_Y322_G324S]	0.3535	-0.03781	0.4613	0.4289	
FSMGCYEIFLG [HMGCL_Y198_S201Y_YF]	1.084	1.946	0.9243	0.8942	Screen [6, 11]: 0.9187
FTDPFYDFEIE [ZC3H18_Y372_A368T_YF]					Screen ([6]; sheet "Abl", effect of variant peptide relative to its reference peptide in pTyr-Var library screen (enrichment)): 2.472; Screen [2, 10]: 0.548; Screen (variant relative to reference peptide, measured in the pTyr-Var library screen) [3]: 0.9547
GTSLIYWILFT [G6PC3_Y214_T216I]	-1.528	-1.381	-1.942	-1.51	
HNLDFYKETTN [FGFR3_Y648_K650E_YF]	-1.533	-1.013	-0.9671	-1.243	
IKRIDYEFVEM [ADA_Y84_A83D]	-0.7273		3.957	2.863	Screen [6, 11]: 0.5744
ITNVLYHVVGW [GBA_Y412_L410V]	-0.5496	-0.5492	-1.243	-1.361	
KAWGIYDCQQP [CYP3A7_Y75_V71A]	0.5201	0.09779	0.3477	0.8548	
KSRQIYDAFIM [GRK3_Y109_R104K_YF]	0.5964	0.6859	0.9818	1.299	
LTFHMYADPNI [SOS1_Y618_F623I_YF]				0.3507	Screen (variant relative to reference peptide, measured in the pTyr-Var library screen) [3]: 0.02693
LVTCSYLLGNS [LMNA_Y646_R644C]				1.308	
MENFIYESMQF [CYP19A1_Y361_R365Q_YF]	0.2137	0.1198	0.9498	1.167	
MSRFIYSTDFF [NTRK1_Y676_D674Y_YF]	-0.8782		-1.34	-1.706	Screen [2, 10]: -0.3372
MTFQNYRQALF [FAM20C_Y279_G280R]				-1.483	
NDFGNYSNQSS [HNRNPA1_Y318_N319S]			4.118	2.422	
NREGVYTVSAP [TGFBI_Y537_F540S]				-1.97	Screen [1, 12]: -3.034; Screen [2, 10]: -0.08291; Screen (variant relative to reference peptide, measured in the pTyr-Var library screen) [3]: -2.126

Substance	Screen [1, 7]	Screen [2, 8]	Screen [3]	Screen [4, 9]	further results
NVKGIYAVADV [GSR_Y371_G374A]	1.853	-0.2612	1.714	2.725	
PANMVYSTVEI [SLAMF7_Y304_T302M]				0.9599	Screen [1, 12]: -0.2345; Screen [2, 10]: 0.01938; Screen (variant relative to reference peptide, measured in the pTyr-Var library screen) [3]: 0.5023
QMVGMYASFFM [AVPR2_Y124_S127F_YF]	2.583	2.334	1.725	1.338	
RIGRKYKRVRF [F8_Y442_K444R]		3.277		1.084	
RNFGTYTAGLS [RHBDD1_Y264_D262G_YF]			-2.368	-2.902	
RQQQDYWLKDV [ANPEP_Y600_I603K]	-2.803		-4.233	-3.253	
RTVPLYESLRK [DDB1_Y718_P721L]	-0.4469	1.169	0.1495	-0.0735	
RVLQLYGCSPS [ASTL_Y279_K277Q]				1.225	
SEPDLYFDPRG [PKP1_Y160_C161Y_YF]	-1.5		1.592	1.913	Screen [2, 10]: 1.044
SQINLYQDVML [ZNF806_Y33_A28S]					Screen [1, 12]: -0.1473; Screen (variant relative to reference peptide, measured in the pTyr-Var library screen) [3]: -0.1927; Screen [4, 13]: -0.4727
SRDPFYEMLTA [CYTH1_Y382_A386T]	-0.1692	0.1014	0.4954	0.7334	
SSSAIYDNPDL [DCP1B_Y191_N195D]	-0.4908	-1.087	-0.6114	-0.486	Screen [6, 11]: 1.925
SVVVLYEPPEV [TP53_Y220_P219L]					Screen [1, 12]: 3.283; Screen (variant relative to reference peptide, measured in the pTyr-Var library screen) [3]: 3.168; Screen [4, 13]: 4.006
TLSGTYQFIIA [FOXL2_Y81_I80T_YF]	-3.428	-2.746	-3.534	-3.51	
VARAVYQAVLS [SMG1_Y549_H546R]				-3.744	Screen [1, 12]: -2.673; Screen [2, 10]: -1.809; Screen (variant relative to reference peptide, measured in the pTyr-Var library screen) [3]: -4.046
VDGSLYETHPQ [HK1_Y417_K418E]	4.441		1.816	2.555	
VDGSVYELHPS [GCK_Y413_K414E]	4.734	1.442	2.239	2.546	
VFLGAYDHFLP [SLC22A5_Y486_R488H_YF]				1.125	Screen [1, 12]: 2.03; Screen [2, 10]: -0.3296; Screen (variant relative to reference peptide, measured in the pTyr-Var library screen) [3]: 0.9383
VKANTYENFWP [GATM_Y100_K102N_YF]	1.784	0.5982	2.281	2.516	
